Assay results published in the supplement of paper PMC10307832.

What was measured:
Test in all cases: relative viability (nuclei count vs DMSO), 5 days (fraction); higher = more cells survive
BX 795 + Decitabine = compound: O=C(NCCCNc1nc(Nc2cccc(NC(=O)N3CCCC3)c2)ncc1I)c1cccs1 [BX 795] + Nc1ncn([C@H]2C[C@H](O)[C@@H](CO)O2)c(=O)n1 [Decitabine] (partner 2 µM)
Procedure, shortened: (§1)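 Lung cancer cell lines in 1536-well plates got either a single drug or a fixed anchor-drug dose together with five library-drug doses (not always all listed) in √10 steps, by pin tool, on the day after seeding. Nuclei were counted after 5 days, and relative viability is the treated-to-vehicle ratio of nuclei counts. Values are medians of duplicate plates.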

BX 795 + Dasatinib = compound: O=C(NCCCNc1nc(Nc2cccc(NC(=O)N3CCCC3)c2)ncc1I)c1cccs1 [BX 795] + Cc1nc(Nc2ncc(C(=O)Nc3c(C)cccc3Cl)s2)cc(N2CCN(CCO)CC2)n1 [Dasatinib] (partner 0.075 µM)
Procedure, shortened: as §1

BX 795 + Lapatinib = compound: O=C(NCCCNc1nc(Nc2cccc(NC(=O)N3CCCC3)c2)ncc1I)c1cccs1 [BX 795] + CS(=O)(=O)CCNCc1ccc(-c2ccc3ncnc(Nc4ccc(OCc5cccc(F)c5)c(Cl)c4)c3c2)o1 [Lapatinib] (partner 2 µM)
Procedure, shortened: as §1

BX 795 + Vorinostat = compound: O=C(NCCCNc1nc(Nc2cccc(NC(=O)N3CCCC3)c2)ncc1I)c1cccs1 [BX 795] + O=C(CCCCCCC(=O)Nc1ccccc1)NO [Vorinostat] (partner 1 µM)
Procedure, shortened: as §1

BX 795 + Olaparib = compound: O=C(NCCCNc1nc(Nc2cccc(NC(=O)N3CCCC3)c2)ncc1I)c1cccs1 [BX 795] + O=C(c1cc(Cc2n[nH]c(=O)c3ccccc23)ccc1F)N1CCN(C(=O)C2CC2)CC1 [Olaparib] (partner 8 µM)
Procedure, shortened: as §1

Cell Line	relative viability (BX 795 + Decitabine; first compound 0.04 µM)	relative viability (BX 795 + Decitabine; first compound 0.1265 µM)	relative viability (BX 795 + Decitabine; first compound 0.4 µM)	relative viability (BX 795 + Decitabine; first compound 1.265 µM)	relative viability (BX 795 + Dasatinib; first compound 0.04 µM)	relative viability (BX 795 + Dasatinib; first compound 0.1265 µM)	relative viability (BX 795 + Dasatinib; first compound 0.4 µM)	relative viability (BX 795 + Dasatinib; first compound 1.265 µM)	relative viability (BX 795 + Lapatinib; first compound 0.04 µM)	relative viability (BX 795 + Lapatinib; first compound 0.1265 µM)	relative viability (BX 795 + Lapatinib; first compound 0.4 µM)	relative viability (BX 795 + Lapatinib; first compound 1.265 µM)	relative viability (BX 795 + Vorinostat; first compound 0.04 µM)	relative viability (BX 795 + Vorinostat; first compound 0.1265 µM)	relative viability (BX 795 + Vorinostat; first compound 0.4 µM)	relative viability (BX 795 + Vorinostat; first compound 1.265 µM)	relative viability (BX 795 + Olaparib; first compound 0.04 µM)	relative viability (BX 795 + Olaparib; first compound 0.1265 µM)	relative viability (BX 795 + Olaparib; first compound 0.4 µM)	relative viability (BX 795 + Olaparib; first compound 1.265 µM)
NCI-H358	0.351	0.236	0.339	0.183	0.155	0.165	0.154	0.154	0.455	0.376	0.429	0.296	0.716	0.661	0.434	0.138	0.724	0.709	0.486	0.368
NCI-H460	0.497	0.584	0.446	0.403	0.491	0.474	0.385	0.385	0.952	1.62	0.892	0.729	0.822	0.967	0.48	0.285	0.371	0.427	0.154	0.346
NCI-H520	0.55	0.545	0.622	0.425	0.199	0.194	0.376	0.162	0.38	0.778	0.672	0.301	0.69	0.721	0.768	0.381	0.334	0.357	0.307	0.22
NCI-H596	1.05	0.982	1.1	1.08	0.626	0.587	0.561	0.591	1.01	1.11	1.11	1.15	0.669	0.585	0.623	0.594	0.729	0.673	0.632	0.766
NCI-H647	0.383	0.447	0.513	0.37	0.19	0.196	0.151	0.0897	1.08	1.21	0.941	0.362	0.553	0.658	0.571	0.189	0.406	0.565	0.288	0.232
NCI-H650	0.458	0.299	0.458	0.357	0.463	0.41	0.42	0.337	0.86	0.873	0.952	0.689	0.391	0.429	0.339	0.34	0.451	0.367	0.412	0.259
NCI-H661	0.683	0.594	0.589	0.533	0.9	0.938	0.501	0.515	0.564	0.576	0.359	0.402	0.824	0.862	0.832	0.449	0.742	0.826	0.662	0.583
NCI-H727	1.23	0.943	0.845	0.905	0.376	0.318	0.386	0.58	0.737	1.01	0.735	0.637	1.29	1.25	1.14	1.21	0.725	0.72	1.02	0.685
NCI-H838	0.568	0.487	0.512	0.322	0.29	0.367	0.261	0.231	0.87	0.943	0.736	0.424	0.737	0.69	0.642	0.201	0.853	0.757	0.643	0.248
NCI-H1355	0.355	0.278	0.449	0.337	0.763	0.659	0.684	0.664	1.05	0.976	1.11	0.946	0.649	0.63	0.696	0.487	0.827	0.663	0.806	0.571
NCI-H1395	0.693	0.774	0.48	0.597	0.368	0.435	0.397	0.32	0.815	0.819	0.595	0.948	0.574	0.624	0.404	0.516	0.452	0.468	0.449	0.501
NCI-H1437	0.616	0.586	0.846	0.618	0.308	0.467	0.396	0.379	0.833	0.858	0.782	0.547	0.765	0.945	1.02	0.621	0.632	0.664	0.651	0.483
NCI-H1650	0.571	0.471	0.548	0.644	0.317	0.276	0.291	0.258	0.938	0.737	0.671	0.521	0.593	0.486	0.528	0.369	0.903	0.713	0.711	0.814
NCI-H1651	0.801	0.624	0.6	0.645	0.38	0.426	0.43	0.347	0.756	0.801	0.764	0.64	0.553	0.478	0.548	0.541	0.193	0.166	0.167	0.163
NCI-H1666	0.925	0.69	0.785	0.686	0.847	0.851	0.736	0.569	0.858	0.653	0.695	0.656	1.13	0.97	1.22	0.923	0.939	0.707	0.938	0.726
NCI-H1734	0.582	0.613	0.545	0.504	0.446	0.465	0.474	0.398	0.993	1.15	0.79	0.801	0.888	0.773	0.482	0.34	0.612	0.662	0.501	0.514

Cell Line	relative viability (BX 795 + Decitabine; first compound 0.04 µM)	relative viability (BX 795 + Decitabine; first compound 0.1265 µM)	relative viability (BX 795 + Decitabine; first compound 0.4 µM)	relative viability (BX 795 + Decitabine; first compound 1.265 µM)	relative viability (BX 795 + Dasatinib; first compound 0.04 µM)	relative viability (BX 795 + Dasatinib; first compound 0.1265 µM)	relative viability (BX 795 + Dasatinib; first compound 0.4 µM)	relative viability (BX 795 + Dasatinib; first compound 1.265 µM)	relative viability (BX 795 + Lapatinib; first compound 0.04 µM)	relative viability (BX 795 + Lapatinib; first compound 0.1265 µM)	relative viability (BX 795 + Lapatinib; first compound 0.4 µM)	relative viability (BX 795 + Lapatinib; first compound 1.265 µM)	relative viability (BX 795 + Vorinostat; first compound 0.04 µM)	relative viability (BX 795 + Vorinostat; first compound 0.1265 µM)	relative viability (BX 795 + Vorinostat; first compound 0.4 µM)	relative viability (BX 795 + Vorinostat; first compound 1.265 µM)	relative viability (BX 795 + Olaparib; first compound 0.04 µM)	relative viability (BX 795 + Olaparib; first compound 0.1265 µM)	relative viability (BX 795 + Olaparib; first compound 0.4 µM)	relative viability (BX 795 + Olaparib; first compound 1.265 µM)
NCI-H1755	0.796	0.645	0.885	0.704	0.432	0.468	0.465	0.353	1.03	1.05	0.999	0.861	0.738	0.735	0.739	0.761	0.961	0.858	0.956	0.725
NCI-H1793	0.589	0.443	0.674	0.374	0.408	0.403	0.361	0.356	0.534	0.682	0.875	0.785	0.888	0.753	0.803	0.293	0.972	0.856	0.928	0.804
NCI-H1915	0.292	0.225	0.309	0.245	0.323	0.285	0.306	0.29	0.947	0.951	0.947	0.827	0.534	0.51	0.525	0.49	0.297	0.26	0.217	0.242
NCI-H1944	0.471	0.497	0.534	0.408	0.241	0.219	0.201	0.194	0.903	0.781	0.879	0.642	0.674	0.637	0.575	0.475	0.476	0.403	0.542	0.403
NCI-H1975	0.434	0.472	0.35	0.359	0.346	0.433	0.401	0.289	0.903	0.982	0.727	0.512	0.761	0.713	0.656	0.399	0.811	0.961	0.632	0.586
NCI-H1993	0.65	0.602	0.719	0.652	0.454	0.56	0.472	0.525	0.848	0.786	0.79	0.658	0.833	0.731	0.577	0.524	0.847	0.92	1.16	0.92
NCI-H2009	0.391	0.39	0.4	0.374	0.261	0.292	0.249	0.162	0.912	0.86	0.988	0.671	0.731	0.67	0.818	0.591	0.717	0.632	0.575	0.355
NCI-H2023	0.241	0.238	0.21	0.199	0.5	0.54	0.306	0.302	0.538	0.749	0.32	0.522	0.471	0.689	0.189	0.3	0.461	0.494	0.403	0.26
NCI-H2085	0.683	0.501	0.737	0.575	0.25	0.214	0.221	0.249	0.881	0.781	0.741	0.642	0.78	0.809	0.778	0.725	0.827	0.833	0.914	0.72
NCI-H2087	0.387	0.347	0.369	0.143	0.895	0.814	0.79	0.619	1.24	1.05	1.08	0.975	0.762	1.06	0.95	0.587	0.833	0.761	0.781	0.448
NCI-H2126	0.626	0.553	0.747	0.593	0.649	0.658	0.507	0.599	0.728	0.752	0.837	0.767	0.805	0.799	0.913	0.73	0.982	0.909	1	0.893
NCI-H2170	0.542	0.47	0.48	0.443	0.594	0.517	0.476	0.64	0.26	0.28	0.262	0.289	0.942	0.985	0.824	0.817	0.597	0.681	0.538	0.487
NCI-H2347	0.65	0.653	0.69	0.636	0.385	0.325	0.293	0.283	0.945	0.903	1.16	0.914	0.5	0.633	0.717	0.505	0.679	0.658	0.646	0.515
NCI-H2405	0.869	0.742	0.693	0.722	0.185	0.193	0.191	0.187	1.21	1	0.792	0.733	1.01	0.809	0.951	0.821	1.03	0.839	0.558	0.878
NCI-H3122	0.415	0.428	0.477	0.532	0.791	1	0.8	0.852	1.04	1	1.09	1.05	0.715	1.03	1.11	0.679	0.573	0.609	0.539	0.669
